Patent US6479513B2, “Anticancer compound and enantiomer separation method useful for synthesizing said compound” (Pfizer Inc., priority 2000, dated 2002)

Target: T1, human farnesyl transferase (FTase) (Homo sapiens, UniProt P49354+P49356)
T1 construct: comprising the cytosolic fraction of homogenized brain tissue; from tissue; host or cells: brain tissue, cytosolic fraction (crude FTase)
Experiment: in vitro inhibition of human FTase, farnesyl transferase (3H) scintillation proximity assay
Type: biochemical
Text: The activity of the compounds of formula 1 and formula 2 as Ras farnesylation inhibitors may be determined by their ability, relative to a control, to inhibit Ras farnesyl transferase in vitro. An example of one such procedure is described below.
A crude preparation of human farnesyl transferase (FTase) comprising the cytosolic fraction of homogenized brain tissue is used for screening compounds in a 96-well assay format. […]
The assay used to measure in vitro inhibition of human FTase is a modification of the method described by Amersham LifeScience for using their Farnesyl transferase (3H) Scintillation Proximity Assay (SPA) kit (TRKQ 7010). FTase enzyme activity is determined in a volume of 100 μl containing 50 mM N-(2-hydroxy ethyl) piperazine-N-(2-ethane sulfonic acid) (HEPES), pH 7.5, 30 mM MgCl2, 20 mM KCl, 25 mM Na2HPO4, 5 mM dithiothreitol (DTT), 0.01% Triton X-100, 5% dimethyl sulfoxide (DMSO), […] of crude FTase, […] [3H]-famesyl pyrophosphate ([3H]-FPP; 36000 dpm/pmole, Amersham LifeScience), and 0.2 μM of biotinylated Ras peptide KTKCVIS (Bt-KTKCVIS) that is N-terminally biotinylated at its alpha amino group and was synthesized and purified by HPLC in house. […] The amount of radioactivity bound to the SPA beads is determined using a MicroBeta 1450 plate counter. […]

activity in inhibiting the enzyme farnesyl protein transferase, relative to the levorotatory isomer (compared with the levorotatory isomer, figures not given): greater activity
IC50 (crude FTase (cytosolic fraction of brain tissue), [3H]-FPP, Bt-KTKCVIS, 45 minute incubation at 37° C., read-out: IC50 value for inhibiting farnesylation of the biotinylated KTKCVIS-peptide): < 500 nM
Compound: Cn1cncc1C(N)(c1ccc(Cl)nc1)c1ccc2c(c1)c(-c1cccc(Cl)c1)cc(=O)n2CC1CC1 (single isomer, unassigned; (+)) [Example 8, (+)-6-[Amino-(6-chloro-pyridin-3-yl)-(3-methyl-3H -imidazol-4-yl)-methyl]-4-(3-chloro-phenyl)-1-cyclopropylmethyl-1H-quinolin-2-one]
